# Data reported in patent publication US20020102688A1, “Methods and products for the synthesis of oligosaccharide structures on glycoproteins, glycolipids, or as free molecules, and for the isolation of cloned genetic sequences that determine these structures” (The Regents of the University of Michigan, priority 1990, published 2002).
# Tests used:
# [1] = molecular target: T1, Fuc-TIV (Homo sapiens, UniProt P22083); assay: Fucosyltransferase assay, extracts of CHO-FT3 cells (CHO transfected with pCDNA1-Fuc-TIV); type: biochemical; set-up: expressed in transfected cells; settings: standard assay, CHO-FT3 cell extracts
# T1 sequence (P22083 1-405 isoform P22083-2): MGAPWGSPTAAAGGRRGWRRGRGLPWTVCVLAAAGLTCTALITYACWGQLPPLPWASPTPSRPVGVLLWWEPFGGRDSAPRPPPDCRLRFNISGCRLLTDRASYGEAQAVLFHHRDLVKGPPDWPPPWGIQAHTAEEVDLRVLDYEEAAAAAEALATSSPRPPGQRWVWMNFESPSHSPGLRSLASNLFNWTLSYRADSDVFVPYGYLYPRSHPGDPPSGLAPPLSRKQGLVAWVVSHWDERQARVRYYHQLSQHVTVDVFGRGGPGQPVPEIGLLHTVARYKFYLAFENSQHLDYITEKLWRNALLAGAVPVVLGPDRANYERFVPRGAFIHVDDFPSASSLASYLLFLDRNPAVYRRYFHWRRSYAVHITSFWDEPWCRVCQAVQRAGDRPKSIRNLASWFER
# Protocol: CHO Ade-C cells were transfected with Scal-linearized pCDM7-Fuc-TIV, co-precipitated in a 10-fold molar excess over EcoRI-linearized pSV2-Neo. A single, clonal, SSEA-1-positive cell line (CHO-FT3) was derived from this population. Cell extracts prepared from CHO-FT3 contained substantial amounts of α(1,3)fucosyltransferase activity when assayed with the acceptor N-acetyllactosamine.
# Cell extracts containing 1% Triton X-100 were prepared from transfected COS-1 cells. Fucosyltransferase assays were performed in a total volume of 20 μl, and contained 50 mM sodium cacodylate, pH 6.2, 5 mM ATP, 10 mM fucose, 20 mM MnCl2, 3 μM GDP-^14C-fucose, and 5 μl (30 μg protein) of cell extract. Acceptor substrates were added to a final concentration of 20 mM. Reactions were incubated at 37° C. for 1 hour and terminated by addition of 20 μl ethanol, followed by addition of 600 μl of distilled water. An aliquot of each reaction (50 μl) was subjected to scintillation counting to determine total radioactivity in the reaction. Another aliquot (200 μl) was applied to a column containing 400 μl of Dowex IX2-400, formate form. The flow through fraction, and […] of a subsequent water elution, were collected and pooled, and an aliquot was subjected to scintillation counting to quantitate incorporation of radioactive fucose into neutral product. Descending paper chromatography was used to confirm the structure of the product formed with the acceptor N-acetyllactosamine. The neutral product in the Dowex column eluate was concentrated by lyophilization, resuspended in a small volume of water, and fractionated through Whatman No. 40 in phenol/isopropanol/formic acid/water (85:5:10:100, lower layer). After chromatography (40 hours), the air-dried chromatogram was cut into 1 cm strips and the strips eluted into 2 ml of water. Radioactivity in each eluate was determined by scintillation counting after mixing with 10 ml of scintillation cocktail.
# [2] = molecular target: T2, Fuc-TVI (Homo sapiens, UniProt P51993); assay: Fucosyltransferase assay, extracts of COS-1 cells transfected with pCDNA1-Fuc-TVI; type: biochemical; settings: for utilization as acceptor substrate by Fuc-TVI (in words): extracts of COS-1 cells transfected with pCDNA1-Fuc-TVI; for Relative Activity (%) with Fuc-TVI: relative product formation rate, N-acetyllactosamine = 100, acceptor 20 mM (2-fucosyllactose 5 mM), GDP-[14C]fucose 3 μM, transfected COS-1 cell extract
# T2 construct: a 1.2 kb fragment containing the entire open reading frame was generated by the polymerase chain reaction; expressed in transfected cells; host or cells: COS-1 cells, transient transfection, 1% Triton X-100 extract
# T2 sequence (P51993 1-359): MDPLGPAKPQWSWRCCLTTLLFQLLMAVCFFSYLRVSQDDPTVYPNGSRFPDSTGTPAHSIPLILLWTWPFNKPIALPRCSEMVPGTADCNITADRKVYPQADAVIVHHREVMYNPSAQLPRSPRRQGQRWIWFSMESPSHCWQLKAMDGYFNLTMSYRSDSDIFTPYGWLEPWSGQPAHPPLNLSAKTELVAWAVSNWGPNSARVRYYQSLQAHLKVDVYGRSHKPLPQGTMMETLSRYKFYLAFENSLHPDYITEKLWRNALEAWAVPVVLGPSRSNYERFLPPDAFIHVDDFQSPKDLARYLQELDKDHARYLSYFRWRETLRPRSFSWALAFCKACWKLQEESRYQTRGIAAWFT
# Protocol: Cell extracts containing 1% Triton X-100 were prepared from transfected COS-1 cells, using procedures described previously (Kukowska-Latallo et al, Genes Devel., 4:1288-1303, 1990). Fucosyltransferase assays were performed in a total volume of 20 μl, and contained 50 mM sodium cacodylate, pH 6.2, 5 mM ATP, 10 mM fucose, 20 mM MnCl2, 3 μM GDP-^14C-fucose, and 5 μl (30 μg protein) of cell extract. Acceptor substrates were added to a final concentration of 20 mM. Reactions were incubated at 37° C. for 1 hour and terminated by addition of 20 μl ethanol, followed by addition of 600 μl of distilled water. An aliquot of each reaction (50 μl) was subjected to scintillation counting to determine total radioactivity in the reaction. Another aliquot (200 μl) was applied to a column containing 400 μl of Dowex 1X2-400, formate form (Rajan et al, J. Biol. Chem., 264:11158-11167, 1989). The flow through fraction, and […] of a subsequent water elution, were collected and pooled, and an aliquot was subjected to scintillation counting to quantitate incorporation of radioactive fucose into neutral product.
# Table 2 presents the relative product formation rates obtained with low molecular weight acceptor substrates using cell extracts containing recombinant human α(1,3)fucosyltransferases expressed in transfected COS-1 cells, as described in the preceding sections. Fucosyltransferase assays were performed as described in detail in Lowe et al, J. Biol. Chem., (1991), 266:17467-17477; Weston et al, J. Biol. Chem. (1992), 267:4152-4160; and Kukowska-Latallo et al, Genes. Devel., (1990), 4:1288-1303. For each enzyme, the same extract was used, with saturating amounts of each acceptor oligosaccharide (20 mM, except for 2′-fucosylactose which was used at 5 mM), and GDP-^14C]fucose was present at 3 μM. Reaction times and enzyme amounts were adjusted to ensure a linear rate of product formation (less than 15% of the GDP-fucose substrate consumed). Products were separated by column chromatography and quantitated by liquid scintillation counting, and their structures were confirmed by high performance liquid chromatography, as described in Lowe et al, J. Biol. Chem., (1991), 266:17467-17477; Weston et al, J. Biol. Chem. (1992), 267:4152-4160; and Kukowska-Latallo et al, Genes. Devel., (1990), 4:1288-1303.
Compound,"α(1,3)fucosyltransferase activity with acceptor substrate [1] [pmol/mg/h]",utilization as acceptor substrate by Fuc-TVI (in words) [2],Relative Activity (%) with Fuc-TVI [2] [%]
CC(=O)N[C@H]1C(O)O[C@H](CO)[C@@H](O[C@@H]2O[C@H](CO)[C@H](O)[C@H](O)[C@H]2O)[C@@H]1O (stereo partly shown) [N-acetyllactosamine],59.1,utilized,100
CC(=O)N[C@@H]1[C@@H](O[C@@H]2O[C@H](CO)[C@H](O)[C@H](O)[C@H]2O)[C@H](O)[C@@H](CO)O[C@@H]1O [lacto-N-biose I],,not utilized,<1
OC[C@H]1O[C@@H](O[C@H]2[C@H](O)[C@@H](O)C(O)O[C@@H]2CO)[C@H](O)[C@@H](O)[C@H]1O (stereo partly shown) [lactose],2.0,did not function as acceptor substrates,<1
"CC(=O)NC1C(O)OC(CO)C(OC2OC(CO)C(O)C(OC3(C(=O)O)CC(O)C(NC(C)=O)C(C(O)C(O)CO)O3)C2O)C1O (stereo not drawn) [α(2,3)sialyllactosamine, NeuAcα(2→3)Galβ(1→4)GlcNAc]",,efficiently utilized,110
"Fucα(1,2)Galβ(1,4)Glc [2-fucosyllactose]",5.8,did not function as acceptor substrates,<1
